Test results reported in patent publication US20230405134A1, “NOVEL PROTAC CHIMERIC COMPOUND, AND PHARMACEUTICAL COMPOSITION COMPRISING SAME FOR PREVENTING, AMELIORATING, OR TREATING DISEASES THROUGH TARGET PROTEIN DEGRADATION” (POSTECH RESEARCH AND BUSINESS DEVELOPMENT FOUNDATION, priority 2020, published 2023).
Where a SMILES comes first, the peptide text is derived from it. Bridges are numbered along the chain shown (N, C = ends). [ ]: non-standard residue; d: D form. Cha = N[C@@H](CC1CCCCC1)C(=O)O; S5 = C=CCCC[C@](C)(N)C(=O)O

What was measured:
PAS-B domain of SRC-1 = molecular target: T1, PAS-B domain of SRC-1 (Homo sapiens, UniProt Q15788); assay: Competitive fluorescence polarization (FP) assay against fluorescently labeled STAT-6 peptide; type: binding; conditions: STAT-6 peptide 100 nM, PAS-B domain 5 μM
T1 construct: PAS-B domain of human SRC-1 (residues 257-385) tagged with His6; His6 (cleaved yes); made in house; host or cells: E. coli BL21 (DE3) pLysS
T1 sequence (Q15788 257-385): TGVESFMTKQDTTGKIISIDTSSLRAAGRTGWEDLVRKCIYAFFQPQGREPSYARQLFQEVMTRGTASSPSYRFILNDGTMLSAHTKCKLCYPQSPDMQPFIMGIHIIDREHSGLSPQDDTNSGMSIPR
Experimental: An expression plasmid of the PAS-B domain of human SRC-1 (residues 257-385) tagged with His6 was provided by Professor John. A. Robinson. (ChemBioChem 2008, 9, 1318-1322). The plasmid was transformed into BL21 (DE3) pLysS cells, and the protein was cultured in Luria-Bertani broth medium and induced with 0.5 mM IPTG at 18° C. for 16 hours. Cell disruption was performed by ultrasonic treatment in a buffer (50 mM Tris-HCl pH 8.0, 200 mM NaCl and 1 mM TCEP), and insoluble materials were removed by centrifugation. HisTrap™ column (GE Healthcare, 17-5255-01) chromatography was performed on the buffer and 500 mM of imidazole was applied for elution. In order to remove the His6-tag, TEV protease was used and the cleaved samples were loaded in HisTrap™ as described above. […]
A competitive fluorescence polarization (FP) assay was performed to evaluate the binding affinity of ND1-YL2 to the target protein. […] After further incubation for 1 hour, the polarization of fluorescence was measured by a Tecan F200 microplate reader (excitation wavelength: 485 nm; emission wavelength: 535 nm). IC50 values were determined using non-linear regression and fitted with GraphPad Prism® 4 software using the following equation: Y=Bottom+(Top-Bottom)/(1+10^X-LogIC50) (FIG. 11A). […] The binding affinity was calculated as described above (FIG. 11B).

MDA-MB-231 cells [1] = assay: Gap closure migration assay; type: cell-based, human; conditions: 20 μM, 72 hours
Experimental: Based on the results that the SRC-1 degradation effectively affects the transcription mediated by SRC-1 (FIGS. 18A and 18B), it was predicted that ND1-YL2 would exert an inhibitory effect on downstream signaling pathways such as increased cancer cell migration and invasion. To test this, we first performed a gap closure migration assay using an invasive MDA-MB-231 cell line. MDA-MB-231 cells (70 μL of 4×10^5 cells/mL) were seeded in culture insert 2 wells (ibidi, 80209) pre-inserted into p-dishes (ibidi) under the conditions of 37° C. and 5% CO2. The culture insert 2 wells was gently removed with sterile tweezers. The cells were treated with DMSO, YL2 (20 […]), RLAA (20 μM) or ND1-YL2 (20 μM) in Opti-MEM medium for 72 hours. Images were obtained by a camera (Olympus) attached to an optical microscope. The cells were grown in the culture insert wells, and the inserts were removed to create intercellular gaps inside the wells. Subsequently, after treated with DMSO, YL2, RLAA peptide or ND1-YL2, the cells were cultured for 72 hours and the degree of cell migration was observed. The cell migration was quantified by analyzing the images of cells filling the gap.

MDA-MB-231 cells [2] = assay: Matrigel invasion assay; type: cell-based, human; conditions: 24 hours; ND1-YL2 various concentrations, YL2 and RLAA 20 μM
Experimental: The inhibition of cell migration may be due to the inhibitory effect of ND1-YL2 on cell growth. In order to exclude this possibility, the invasive ability of cells treated with ND1-YL2 was confirmed. A Corning Matrigel insert (Corning) was placed in a 24-well plate. After hydrating the Matrigel insert with an FBS-free DMEM medium for 2 hours in a CO2 incubator, MDA-MB-231 cells were cultured in the Matrigel insert (4×10^4 cells/insert) with 125 μL of Opti-MEM medium. Another 125 μl of compound containing Opti-MEM medium was added to the insert. The lower chamber was filled with 500 μL of DMEM medium containing 10% FBS. The Matrigel chamber was cultured for 24 hours under the conditions of 37° C. and 5% CO2. The cell culture media of the upper and lower chambers were removed and washed three times with cold DPBS. Non-invasive cells were then removed with a cotton swab. The bottom of the chamber was fixed with 4% formaldehyde for 10 minutes at room temperature, and stained with Hoechst 33342 (5 μg/mL) for 5 minutes in a CO2 incubator. After washed with DPBS, images of infiltrated cells were obtained by a fluorescence microscope. The percentage of the invasive cells was calculated using the product manual. MDA-MB-231 cells were treated with various concentrations of ND1-YL2, N-degron (20 μM) or YL2 (20 μM). After 24 hours, images of the invaded cells were obtained by a fluorescence microscope, and the number of invaded cells was quantified through the images. […] The inhibitory activity of ND1-YL2 on cell migration and invasion is in good agreement with previous SRC-1 knockdown experiments.

SRC-1 = SRC-1 (Homo sapiens, UniProt Q15788); assay: SRC-1 expression level in MDA-MB-231 cells by Western blot; type: cell-based; parameters: endogenous in cells; host or cells: MDA-MB-231
Sequence of SRC-1 (Q15788 whole entry): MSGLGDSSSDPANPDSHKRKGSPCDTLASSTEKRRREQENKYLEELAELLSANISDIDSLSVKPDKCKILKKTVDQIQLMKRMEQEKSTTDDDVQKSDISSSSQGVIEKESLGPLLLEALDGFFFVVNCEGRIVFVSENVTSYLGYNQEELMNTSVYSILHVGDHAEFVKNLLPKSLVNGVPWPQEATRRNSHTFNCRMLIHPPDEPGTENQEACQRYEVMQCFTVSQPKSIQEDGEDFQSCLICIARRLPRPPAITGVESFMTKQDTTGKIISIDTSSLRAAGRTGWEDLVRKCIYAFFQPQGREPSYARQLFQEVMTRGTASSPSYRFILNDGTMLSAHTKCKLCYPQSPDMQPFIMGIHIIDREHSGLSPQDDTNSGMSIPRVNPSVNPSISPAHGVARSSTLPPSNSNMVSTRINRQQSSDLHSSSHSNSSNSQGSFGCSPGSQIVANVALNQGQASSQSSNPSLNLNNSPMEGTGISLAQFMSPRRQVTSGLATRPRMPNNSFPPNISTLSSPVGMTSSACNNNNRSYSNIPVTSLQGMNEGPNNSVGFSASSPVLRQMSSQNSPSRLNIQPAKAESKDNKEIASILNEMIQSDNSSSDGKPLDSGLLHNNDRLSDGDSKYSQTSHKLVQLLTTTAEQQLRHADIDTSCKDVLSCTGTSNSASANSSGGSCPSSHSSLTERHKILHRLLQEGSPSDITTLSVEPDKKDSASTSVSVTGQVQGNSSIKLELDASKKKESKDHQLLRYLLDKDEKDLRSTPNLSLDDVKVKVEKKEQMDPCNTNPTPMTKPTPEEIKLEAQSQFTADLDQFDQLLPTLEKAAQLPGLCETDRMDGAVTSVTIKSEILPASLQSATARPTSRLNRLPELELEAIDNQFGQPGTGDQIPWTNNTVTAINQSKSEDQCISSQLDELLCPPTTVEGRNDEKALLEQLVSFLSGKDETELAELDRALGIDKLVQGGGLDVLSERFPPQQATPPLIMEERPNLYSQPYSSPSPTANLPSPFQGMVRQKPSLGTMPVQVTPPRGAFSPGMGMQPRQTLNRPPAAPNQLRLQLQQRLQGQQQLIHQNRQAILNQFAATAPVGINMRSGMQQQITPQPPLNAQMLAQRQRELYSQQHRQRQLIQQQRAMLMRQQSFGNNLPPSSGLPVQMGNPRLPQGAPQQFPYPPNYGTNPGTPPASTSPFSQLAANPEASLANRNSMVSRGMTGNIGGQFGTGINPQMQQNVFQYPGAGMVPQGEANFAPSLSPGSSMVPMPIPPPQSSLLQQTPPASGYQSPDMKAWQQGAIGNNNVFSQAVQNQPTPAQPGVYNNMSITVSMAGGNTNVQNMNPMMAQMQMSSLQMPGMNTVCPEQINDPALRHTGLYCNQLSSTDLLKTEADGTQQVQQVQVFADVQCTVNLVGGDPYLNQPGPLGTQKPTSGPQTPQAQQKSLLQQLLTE

## CC(C)C[C@H](NC(=O)[C@H](C)NC(=O)[C@H](C)NC(=O)[C@H](C)NC(=O)[C@H](C)NC(=O)[C@H](CC(C)C)NC(=O)[C@@H](N)CCCNC(=N)N)C(=O)N[C@@H](CC(C)C)C(=O)N1CCC[C@H]1C(=O)N1CCC[C@H]1C(=O)N[C@H](C(=O)N[C@@H](CCC(=O)O)C(=O)N[C@@H](CCC(N)=O)C(=O)N[C@@H](CC(=O)O)C(=O)N[C@@H](CC(C)C)C(=O)N[C@@]1(C)CCC/C=C\CCC[C@@](C)(C(=O)N[C@@H](Cc2ccc(O)cc2)C(N)=O)NC(=O)[C@H](CC2CCCCC2)NC(=O)[C@H](CC(C)C)NC(=O)[C@H](CCCCN)NC1=O)[C@@H](C)O [ND1-YL2] (H-RLAAAALLPPTEQDL[S5]KL[Cha][S5]Y-NH2; staple (Z) 16-20)
PAS-B domain of SRC-1
  Ki: 0.32 µM
MDA-MB-231 cells [1]
  Existing gaps maintained (cell migration): about 80%
MDA-MB-231 cells [2]
  Effect on cell invasion: cell invasion decreased as the treatment concentration of ND1-YL2 increased
SRC-1; 20 μM
  Selective degradation of SRC-1 over SRC-3: selectively degraded only SRC-1
  Time after treatment at which SRC-1 degradation was evident: 8 h
  Time for which SRC-1 degradation was maintained without detectable recovery: 24 h
SRC-1; 20 μM, 12 hours
  SRC-1 degradation, single agents compared: degradation of SRC-1 appeared only in ND1-YL2
SRC-1; 20 μM, after washing
  Time to restoration of SRC-1 expression to the original level after removal of compound: ≤ 12 h
SRC-1; various concentrations, Western blot
  SRC-1 degradation: strongest activity among the synthesized and treated compounds
SRC-1; various concentrations, Western blot, read-out: DC50 for reduction of SRC-1 expression level
  DC50: ~10 µM
SRC-1; with proteasome inhibitor MG-132 (5 μM), 12 hours
  SRC-1 degradation when treated together with MG-132: did not show the effect of degrading SRC-1
